Where two headings read alike, the source gives them in different places.
Experiments:
THP-1 cells = experiment: Cell viability MTS assay, THP-1; format: cell-based; conditions: Homo sapiens, 72 h, read-out: IC50 antiproliferative, THP-1
Procedure: (§1) MTS assay was used to measure the cell viability. For single treatment, Jurkat, THP-1 and HEL (8000 cells/well), HCT116 and A549 (2000 cells/well) were seeded in 96-well plates in 100 μL complete medium. After overnight incubation, 50 μL of media containing various concentrations of compounds or the vehicle were added to each well. For cotreatment, cells were seeded in 96-well plates in 50 μL complete medium. After overnight incubation, 50 μL of Z-VAD-FMK, Nec-1, Fer-1, CQ, and other indicated compounds were added to each well. One hour later, 50 μL of media containing various concentrations of compounds were added to each well. After 72 h of treatment, 20 μL of CellTiter 96 AQueous One Solution reagent (Promega, Madison, USA) was added to each well according to manufacturer’s protocol. Plates were incubated at 37 °C for 1–2 h. The absorbance was determined at a wavelength of 490 nm using a Synergy H1 plate reader (Biotek, Winooski, VT, USA).

HCT116 cells = experiment: Cell viability MTS assay, HCT116; format: cell-based; conditions: Homo sapiens, HCT-116, 72 h, read-out: IC50 antiproliferative, HCT116
Procedure: as §1

HDAC8 [1] = molecular target: T1, HDAC8 (Homo sapiens, UniProt Q9BY41); experiment: In vitro HDAC8 deacetylase inhibition assay; conditions: read-out: HDAC8 IC50; recombinant enzyme, Boc-Lys(TFA)-AMC
T1 sequence (Q9BY41 1-377): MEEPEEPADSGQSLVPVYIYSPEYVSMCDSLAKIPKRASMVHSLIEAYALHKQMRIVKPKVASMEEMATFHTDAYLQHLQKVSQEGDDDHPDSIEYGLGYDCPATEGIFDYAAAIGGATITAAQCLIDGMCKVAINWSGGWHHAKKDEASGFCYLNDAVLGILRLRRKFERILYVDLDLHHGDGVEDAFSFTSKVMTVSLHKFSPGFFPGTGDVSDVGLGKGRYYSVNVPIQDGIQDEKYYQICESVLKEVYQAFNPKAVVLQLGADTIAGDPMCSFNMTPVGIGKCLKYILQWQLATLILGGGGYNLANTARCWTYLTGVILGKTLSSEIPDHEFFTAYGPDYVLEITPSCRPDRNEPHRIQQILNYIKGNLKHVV
Procedure: (§2) After a following incubation at 37 °C for 20 min, the fluorescence was measured on a Synergy H1 Platereader (BioTek, USA) with an excitation wavelength of 370 nm and an emission wavelength of 460 nm. Nonlinear regression was used for the determination of the IC50 of each compound.

HDAC3/NcoR2 = HDAC3/NcoR2 (Homo sapiens, UniProt O15379); experiment: In vitro HDAC3 deacetylase inhibition assay; conditions: read-out: HDAC3 IC50; recombinant enzyme, Boc-Lys(Ac)-AMC
Chain of HDAC3/NcoR2 (O15379 whole entry): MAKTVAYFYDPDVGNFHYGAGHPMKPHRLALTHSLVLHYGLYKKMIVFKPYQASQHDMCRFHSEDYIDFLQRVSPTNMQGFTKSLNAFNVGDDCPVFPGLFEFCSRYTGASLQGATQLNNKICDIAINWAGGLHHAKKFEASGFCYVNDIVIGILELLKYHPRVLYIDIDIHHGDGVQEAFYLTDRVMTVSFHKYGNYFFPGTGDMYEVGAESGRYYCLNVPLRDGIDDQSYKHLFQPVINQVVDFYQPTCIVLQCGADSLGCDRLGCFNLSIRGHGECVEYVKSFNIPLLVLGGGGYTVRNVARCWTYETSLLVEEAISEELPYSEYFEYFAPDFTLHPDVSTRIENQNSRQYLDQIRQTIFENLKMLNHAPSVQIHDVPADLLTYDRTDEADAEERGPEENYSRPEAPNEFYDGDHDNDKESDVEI
Chain of HDAC3/NcoR2 (Q9Y618 395-489 partner limits assumed): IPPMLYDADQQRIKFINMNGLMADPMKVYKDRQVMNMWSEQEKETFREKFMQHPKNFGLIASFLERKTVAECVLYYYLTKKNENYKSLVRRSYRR
Procedure: as §2

A549 cells = experiment: Cell viability MTS assay, A549; format: cell-based; conditions: Homo sapiens, 72 h, read-out: IC50 antiproliferative, A549
Procedure: as §1

HDAC1 = HDAC1 (Homo sapiens, UniProt Q13547); experiment: In vitro HDAC1 deacetylase inhibition assay; conditions: read-out: HDAC1 IC50; recombinant enzyme, Boc-Lys(Ac)-AMC
Chain of HDAC1 (Q13547 whole entry): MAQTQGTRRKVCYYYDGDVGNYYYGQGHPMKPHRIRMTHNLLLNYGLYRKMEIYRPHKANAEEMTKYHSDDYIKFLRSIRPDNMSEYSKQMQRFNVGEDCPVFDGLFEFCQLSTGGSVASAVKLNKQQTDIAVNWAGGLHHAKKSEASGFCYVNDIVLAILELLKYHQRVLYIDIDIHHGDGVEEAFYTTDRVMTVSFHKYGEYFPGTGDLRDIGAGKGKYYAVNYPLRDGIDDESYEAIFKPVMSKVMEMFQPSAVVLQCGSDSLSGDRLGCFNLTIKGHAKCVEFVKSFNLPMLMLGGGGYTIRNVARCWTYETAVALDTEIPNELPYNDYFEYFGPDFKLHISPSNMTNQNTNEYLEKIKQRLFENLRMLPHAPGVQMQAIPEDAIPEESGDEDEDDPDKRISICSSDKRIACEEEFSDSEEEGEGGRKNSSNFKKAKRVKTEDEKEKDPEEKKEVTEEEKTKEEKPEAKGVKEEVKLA
Procedure: as §2

HDAC2 = HDAC2 (Homo sapiens, UniProt Q92769); experiment: In vitro HDAC2 deacetylase inhibition assay; conditions: read-out: HDAC2 IC50; recombinant enzyme, Boc-Lys(Ac)-AMC
Chain of HDAC2 (Q92769 whole entry): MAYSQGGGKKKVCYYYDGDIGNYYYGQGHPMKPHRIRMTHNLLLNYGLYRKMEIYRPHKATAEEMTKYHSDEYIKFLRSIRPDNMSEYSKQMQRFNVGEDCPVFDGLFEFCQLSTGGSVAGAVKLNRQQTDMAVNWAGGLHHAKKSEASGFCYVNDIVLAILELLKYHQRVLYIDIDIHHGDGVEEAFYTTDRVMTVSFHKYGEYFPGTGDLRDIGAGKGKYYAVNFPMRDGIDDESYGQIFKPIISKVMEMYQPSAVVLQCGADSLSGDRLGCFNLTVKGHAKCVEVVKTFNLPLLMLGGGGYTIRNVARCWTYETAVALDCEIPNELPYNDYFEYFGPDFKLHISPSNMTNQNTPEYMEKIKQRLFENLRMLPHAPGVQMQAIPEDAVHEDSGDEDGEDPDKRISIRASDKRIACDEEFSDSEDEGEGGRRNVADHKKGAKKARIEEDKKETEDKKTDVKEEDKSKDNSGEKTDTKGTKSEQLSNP
Procedure: as §2

Jurkat cells = experiment: Cell viability MTS assay, Jurkat; format: cell-based; conditions: Homo sapiens, Jurkat; 72 h, MTS assay; read-out: IC50 antiproliferative, Jurkat
Procedure: as §1

acetyl-SMC3 (Ac-SMC3) = experiment: Ac-SMC3 level in Jurkat cells, Western blot; format: cell-based; conditions: 1 μM, 6 h
HDAC6 [2] = molecular target: T2, HDAC6 (Homo sapiens, UniProt Q9UBN7); parameters: endogenous in cells; host or cells: Jurkat; conditions: Jurkat cells; cited from earlier work
T2 sequence (Q9UBN7 1-1215): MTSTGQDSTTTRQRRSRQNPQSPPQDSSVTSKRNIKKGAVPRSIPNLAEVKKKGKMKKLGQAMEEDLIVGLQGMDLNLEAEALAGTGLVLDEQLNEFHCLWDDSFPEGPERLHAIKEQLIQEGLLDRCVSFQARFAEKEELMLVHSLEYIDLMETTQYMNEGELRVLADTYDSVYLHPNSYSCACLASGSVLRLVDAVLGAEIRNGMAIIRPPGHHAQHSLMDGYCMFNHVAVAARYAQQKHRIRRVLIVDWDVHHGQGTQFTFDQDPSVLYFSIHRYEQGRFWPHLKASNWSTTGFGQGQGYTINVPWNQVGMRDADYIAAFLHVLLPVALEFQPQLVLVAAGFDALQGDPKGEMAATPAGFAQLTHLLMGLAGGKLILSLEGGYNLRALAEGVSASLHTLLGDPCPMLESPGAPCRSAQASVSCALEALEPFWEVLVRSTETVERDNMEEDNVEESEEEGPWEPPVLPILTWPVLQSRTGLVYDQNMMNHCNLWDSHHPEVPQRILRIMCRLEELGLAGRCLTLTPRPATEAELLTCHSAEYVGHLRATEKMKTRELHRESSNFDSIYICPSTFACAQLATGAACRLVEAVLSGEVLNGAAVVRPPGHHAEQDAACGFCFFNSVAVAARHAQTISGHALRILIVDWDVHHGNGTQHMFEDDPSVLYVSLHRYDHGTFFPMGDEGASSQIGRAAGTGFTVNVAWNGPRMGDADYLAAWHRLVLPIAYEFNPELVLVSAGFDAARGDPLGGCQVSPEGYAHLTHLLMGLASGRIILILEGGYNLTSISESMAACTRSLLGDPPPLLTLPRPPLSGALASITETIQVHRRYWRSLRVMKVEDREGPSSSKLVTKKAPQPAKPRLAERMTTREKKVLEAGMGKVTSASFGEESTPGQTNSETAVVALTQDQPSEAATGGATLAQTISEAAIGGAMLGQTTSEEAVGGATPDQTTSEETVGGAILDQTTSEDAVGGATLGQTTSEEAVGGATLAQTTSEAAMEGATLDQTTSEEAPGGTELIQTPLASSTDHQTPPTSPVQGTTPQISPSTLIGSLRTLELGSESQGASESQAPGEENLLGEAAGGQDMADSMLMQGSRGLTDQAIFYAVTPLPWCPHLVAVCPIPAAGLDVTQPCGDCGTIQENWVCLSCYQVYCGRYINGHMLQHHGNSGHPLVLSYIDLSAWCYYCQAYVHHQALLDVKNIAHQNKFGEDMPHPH

HDAC6 [3] = molecular target: T2, HDAC6; parameters: endogenous in cells; conditions: MDA-MB-231 cells; cited from earlier work
HDAC8 [4] = molecular target: T1, HDAC8; parameters: endogenous in cells; host or cells: A549; method as in PMID 36516047; conditions: A549 cells; cited from earlier work

Row | IC50 (HDAC8 [1]) [µM] | IC50 (HDAC3/NcoR2) [µM] | IC50 (HDAC1) [µM] | IC50 (HDAC2) [µM] | SMILES | IC50 (THP-1 cells) [µM] | IC50 (HCT116 cells) [µM] | IC50 (A549 cells) [µM] | IC50 (Jurkat cells) [µM] | level of Ac-SMC3 at 1 μM (in words) (acetyl-SMC3 (Ac-SMC3)) | DC50 (HDAC6 [2]) [µM] | DC50 (HDAC6 [3]) [µM] | DC50 (HDAC8 [4]) [µM]
1 | 0.6 ± 0.08 | 9.5 ± 0.7 | 0.94 ± 0.05 | 8 ± 1 | CCCCCCNNC(=O)c1ccc(CNC(C)=O)cc1 [Compound 6, N-(4-(2-Hexylhydrazine-1-carbonyl)benzyl)acetamide] | > 33.3 | > 33.3 | > 33.3 | > 33.3 | neither 1 μM of pan-HDAC inhibitor SAHA nor 1 μM of HDAC8 inhibitor 6 increased the level of Ac-SMC3 |  |  | 
2 |  |  |  |  | COc1ccc(C(=O)NO)cc1OCc1ccc(C(=O)NCCCCCCCCNc2cccc3c2C(=O)N(C2CCC(=O)NC2=O)C3=O)cc1 (stereo not shown) [PROTAC 4] | 10.8 ± 0.9 | 8 ± 0.5 | 15.2 ± 3.3 | 4 ± 0.8 |  | 0.0785 | 0.038 | 
3 |  |  |  |  | O=C1CCC(N2C(=O)c3cccc(NCc4cn(CCOCCOc5ccc(Cn6ccc7ccc(C(=O)NO)cc76)cc5)nn4)c3C2=O)C(=O)N1 (stereo not shown) [PROTAC 5] |  |  |  |  |  |  |  | 0.58
